# In patent US20170035742A1, “DURABLE TREATMENT WITH 4-AMINOPYRIDINE IN PATIENTS WITH DEMYELINATION” (Acorda Therapeutics, Inc., priority 2009, published 2017):
# Key:
# [1] = Tissue distribution of 14C-labeled 4-aminopyridine 1 mg/kg p.o. in rats; settings: one hour post-dose
# Method: In a single-dose study, rats were administered ^14C-labeled 4-aminopyridine (1 mg/kg) p.o. Three animals per time point were sacrificed 1, 3, 8, and 24 hours post-dose. Blood was collected and tissues were excised for determination of radioactivity.
# [2] = Plasma protein binding; format: in vitro ADME; settings: human
# Excerpt: Measurable levels are present in the saliva.
# [3] = Single- and repeated-dose toxicity studies; format: in vivo; settings: after large single doses or repeated lower doses, all species studied
# Excerpt: In single- and repeated-dose toxicity studies, the dosing regimen greatly affected the rate of side effects. […] These clinical signs were not unexpected and represent exaggerated pharmacology of 4-aminopyridine.
# [4] = Adverse events in controlled clinical studies; format: in vivo, human
# Excerpt: In controlled clinical studies involving the use of 4-aminopyridine, the most frequent adverse events by body system occurred in the nervous system, “body as a whole”, and digestive system.
# While an increased incidence of such events appears to be moderately dose-related, the susceptibility of individuals is quite variable. As a result of disease pathology, there appears to be potential for more lowering of seizure threshold in people with MS than for people with spinal cord injury; this may result from interaction of the channel-blocking properties of the drug with MS brain pathology in certain individuals.
# [5] = tested on: patients with multiple sclerosis; experiment: MS-F203EXT open-label extension study; settings: over two years open-label
# Method: This extension study (MS-F203EXT) monitored efficacy and safety during open-label treatment of patients from MS-F203. Design/methods: Patients were treated with 10 mg fampridine bid, and were assessed in the clinic at 2, 14, and 26 weeks and every 6 months thereafter. Eligibility criteria included: definite MS; age 18-70; Timed 25-Foot Walk (T25FW) times of 8-45 seconds at screening for MS-F203. Efficacy was analyzed by the proportion of Extension Timed Walk Responders (ETWRs) whose walking was faster during the majority of visits than their fastest off-treatment speed.
# MS-F203EXT monitored efficacy and safety during open-label treatment of patients from MS-F203. Patients were treated with 10 mg fampridine bid, and were assessed in the clinic at 2, 14, and 26 weeks and every 6 months thereafter. Eligibility criteria included: definite MS; age 18-70; Timed 25-Foot Walk (T25FW) times of 8-45 seconds at screening for MS-F203. Efficacy was analyzed by the proportion of Extension Timed Walk Responders (ETWRs) whose walking was faster during the majority of visits than their fastest off-treatment speed. […] There are safety assessments, a timed 25 Foot Walk assessment, Clinician and Subject Global Impression at each visit. An EDSS assessment is performed every 2 years.
# Timed walk response in the extension study was measured using the Timed 25-Foot Walk (T25W). […]
# [6] = Rat i.v. and p.o. pharmacokinetics, 2 mg/kg (M 2001-03); settings: AUC(0-∞) p.o. vs i.v.
Molecule,dose accounted for in total [1],"radioactivity in blood, percent of dose [1]","radioactivity in kidney, percent of dose [1]","radioactivity in liver, percent of dose [1]",unbound to plasma proteins [2],clinical signs [3],most common nervous system adverse events [4],most frequently reported event in the digestive system category [4],safety profile [5],bioavailability ([6]; female rats),bioavailability ([6]; male rats)
^14C-4-Aminopyridine,58.3%,0.7%,1.6%,2.6%,–,–,–,–,–,–,–
Nc1ccncc1 [4-aminopyridine],–,–,–,–,97-99%,"tremors, convulsions, ataxia, dyspnea, dilated pupils, prostration, abnormal vocalization, increased respiration, excess salivation, gait abnormalities, and hyper- and hypo-excitability","Dizziness, insomnia, paresthesia, pain, headache and asthenia",nausea,No new safety issues emerged,~55%,approximately 66.5%
